Assay [1] concerns VZV strain Ellen. Put plainly: VZV antiviral (ELISA) assay. Format: cell-based. In outline: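 HFF cells infected with VZV Ellen at multiplicity below 0.1 overnight, then mixed infected/uninfected cells seeded with compound in DMEM/2% FBS and incubated three days at 37°C, 5% CO2.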
Background: ELISA stands for enzyme-linked immunosorbent assay.

Assay [2] concerns HCMV recombinant mutant virus whose genome contains the prokaryotic beta-glucuronidase gene. Briefly: microbe, parasite or virus in culture. Format: cell-based, human cytomegalovirus. The settings on record: Human betaherpesvirus 5, Fibroblast. In outline: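 Human foreskin fibroblasts infected with HCMV recombinant carrying beta-glucuronidase under a viral promoter (e.g. RV145) in presence of compound. At 96 h post-infection, lysates assayed for beta-glucuronidase by colorimetric or fluorogenic substrate as replication readout; IC50 estimated from varying compound amounts.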

Assay [3] deals with HSV- I. Briefly: HSV antiviral (ELISA) assay. Format: cell-based. The settings on record: read-out: IC50 (ug/ml) HSV. In outline: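 Vero cells in DMEM with 2% FBS treated with compound 30 min before HSV-1 infection (MOI 0.006), then incubated ~24 h at 37°C. Viral replication measured by ELISA against glycoprotein D with β-galactosidase-linked secondary and fluorogenic substrate (ex 365/em 450 nm); IC50 relative to untreated fluorescence.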

Setting [4] is: Human alphaherpesvirus 3, HFF, read-out: IC50 (ug/ml) VZV, VZV strain Ellen, HFF cells, ELISA.
The mark [5] stands for this setting: read-out: IC50 ug/ml HCMV, HCMV, human foreskin fibroblasts.
The mark [6] stands for this setting: Human alphaherpesvirus 3, HFF, read-out: % inhibition 10 ug/ml VZV.
Setting [7] is: Human alphaherpesvirus 3, HFF, read-out: IC50 (ug/ml) VZV.
The mark [8] stands for this setting: Human alphaherpesvirus 3, read-out: % inhibition 10 ug/ml VZV, 10 ug/ml, VZV strain Ellen, HFF cells, ELISA.
Setting [9] is: Human alphaherpesvirus 3, VZV strain Ellen, HFF cells, ELISA, read-out: IC50 (ug/ml) VZV.

Values after ≈ are worked out from the molar mass of the structure shown. Like-named read-outs stand apart in the source and are kept apart here.

With `CCCCN(C)c1cc(NC(=S)Nc2ccc(NC(=O)c3ccccc3F)cc2)cc(C(F)(F)F)c1` [Example 598, N-(4-{3-[3-(Butyl-methyl-amino)-5-trifluoromethyl-phenyl]-thioureido}-phenyl)-2-fluoro-benzamide], the IC50 in assay [1] (setting [4]), in assay [2] (setting [5]) and in assay [3] (Vero) was greater than 10 µg/mL in each case.
For the molecule `CN(C)c1ccc(NC(=S)Nc2ccc(NC(=O)c3c(F)cccc3F)cc2)cc1Cl` [Example 348, N-{4-[3-(3-Chloro-4-dimethylamino-phenyl)-thioureido]-phenyl}-2,6-difluoro-benzamide], in assay [1] (setting [6]), the inhibition at 10 µg/mL came out at 95%. Besides, the IC50 in assay [1] (setting [7]) is 8 µg/mL (≈ 17.4 µM); in assay [2] (setting [5]), 0.8 µg/mL (≈ 1.74 µM); in assay [3] (HSV- I, Vero cells, ELISA) it was 4 µg/mL (≈ 8.68 µM).
The like results for `CCOC(=O)COc1cccc(C(=O)Nc2ccc(NC(=S)Nc3cc(Cl)c(OC)cc3OC)cc2)c1` [Example 221, (3-{4-[3-(5-Chloro-2,4-dimethoxy-phenyl)-thioureido]-phenylcarbamoyl}-phenoxy)-acetic acid ethyl ester] were, in that order, 17%, greater than 10 µg/mL, greater than 10 µg/mL and greater than 10 µg/mL.
As for `O=C(Nc1ccc(NC(=S)Nc2ccccc2)cc1)c1ccccc1F` [Example 859, 2-Fluoro-N-[4-(3-phenyl-thioureido)-phenyl]-benzamide], in assay [1] (setting [8]), the inhibition at 10 µg/mL was found to be 20%. Also, the IC50 in assay [1] (setting [9]) was greater than 10 µg/mL; in assay [2] (read-out: IC50 ug/ml HCMV), greater than 10 µg/mL; in assay [3] (HSV- I, Vero cells, ELISA) it was greater than 10 µg/mL.
On to `COc1cc(OC)c(NC(=S)Nc2ccc(NC(=O)c3cccc(OCCN(C)C)c3)cc2)cc1Cl` [Example 257, N-{4-[3-(5-Chloro-2,4-dimethoxy-phenyl)-thioureido]-phenyl}-3-(2-dimethylamino-ethoxy)-benzamide], for which the inhibition at 10 µg/mL in assay [1] (setting [6]) was determined as 105%. In addition, the IC50 in assay [1] (setting [7]) was determined as 2.5 µg/mL (≈ 4.73 µM); in assay [2] (setting [5]) it was 7 µg/mL (≈ 13.2 µM); in assay [3] (HSV- I, Vero cells, ELISA) it was 2.5 µg/mL (≈ 4.73 µM).
Consider `COc1cc(OC)c(NC(=S)Nc2ccc(NC(=O)c3ccccc3CO)cc2)cc1Cl` [Example 185, N-{4-[3-(5-Chloro-2,4-dimethoxy-phenyl)-thioureido]-phenyl}-2-hydroxy-methyl-benzamide], for which, in assay [1] (setting [6]), the inhibition at 10 µg/mL stood at 32%. The IC50 in assay [1] (setting [7]) was greater than 10 µg/mL; in assay [2] (setting [5]) it was 10 µg/mL (≈ 21.2 µM); in assay [3] (HSV- I, Vero cells, ELISA), 3 µg/mL (≈ 6.36 µM).
For `CCCOc1ccc(NC(=S)Nc2ccc(NC(=O)c3ccccc3F)cc2)cc1Cl` [Example 807, N-{4-[3-(3-Chloro-4-propoxy-phenyl)-thioureido]-phenyl}-2-fluoro-benzamide], the IC50 was 0.9 µg/mL (≈ 1.97 µM) in assay [1] (setting [4]), 10 µg/mL (≈ 21.8 µM) in assay [2] (setting [5]) and greater than 10 µg/mL in assay [3] (Vero).
Take `O=C(Nc1ccc(NC(=S)Nc2ccc(Cl)c(Cl)c2)cc1)c1ccccc1F` [Example 912, N-{4-[3-(3,4-Dichloro-phenyl)-thioureido]-phenyl}-2-fluoro-benzamide]: the inhibition at 10 µg/mL in assay [1] (setting [6]) came out at 21%. The IC50 was greater than 10 µg/mL in assay [1] (setting [7]); greater than 10 µg/mL in assay [2] (setting [5]); 8 µg/mL (≈ 18.4 µM) in assay [3] (HSV- I, Vero cells, ELISA).
In the case of `CC(NC(=S)Nc1ccc(NC(=O)c2ccccc2F)cc1)c1ccc(S(=O)(=O)N(C)C)cc1` (stereo not drawn) [Example 1008, N-(4-{3-[1-(4-Dimethylsulfamoyl-phenyl)-ethyl]-thioureido}-phenyl)-2-fluoro-benzamide], the IC50 in assay [1] (setting [4]) was greater than 10 µg/mL; in assay [2] (setting [5]) it was 8.5 µg/mL (≈ 17 µM); in assay [3] (Vero), greater than 10 µg/mL.
On to `CCN(CC)CC(=O)Nc1ccc(NC(=S)Nc2ccc(NC(=O)c3ccccc3F)cc2)cc1Cl` [Example 414, N-(4-{3-[3-Chloro-4-(2-diethylamino-acetylamino)-phenyl]-thioureido}-phenyl)-2-fluoro-benzamide], for which, in assay [1] (setting [6]), the inhibition at 10 µg/mL was found to be 70%. Besides, the IC50 in assay [1] (setting [7]) is greater than 15 µg/mL; in assay [2] (setting [5]), greater than 10 µg/mL; in assay [3] (HSV- I, Vero cells, ELISA), 6 µg/mL (≈ 11.4 µM).
Consider `CC(NC(=S)Nc1ccc(NC(=O)c2ccccc2F)cc1)c1ccc(S(=O)(=O)N2CCCCC2)cc1` (stereo not drawn) [Example 1009, 2-Fluoro-N-[4-(3-{1-[4-(piperidine-1-sulfonyl)-phenyl]-ethyl}-thioureido)-phenyl]-benzamide], for which the IC50 in assay [1] (setting [4]), in assay [2] (setting [5]) and in assay [3] (Vero) was greater than 10 µg/mL throughout.
For the molecule `O=C(Nc1ccc(NC(=S)NCCc2ccc(F)cc2)cc1)c1ccccc1F` [Example 553, 2-Fluoro-N-(4-{3-[2-(4-fluoro-phenyl)-ethyl]-thioureido}-phenyl)-benzamide], the IC50 in assay [1] (setting [9]) is 7 µg/mL (≈ 17 µM); in assay [2] (read-out: IC50 ug/ml HCMV) it was greater than 0.5 µg/mL; in assay [3] (HSV- I, Vero cells, ELISA), greater than 10 µg/mL.
Take `COc1cc(OC)c(NC(=S)Nc2ccc(NC(=O)c3c(F)cccc3F)cc2)cc1Cl` [Example 140, N-{4-[3-(5-Chloro-2,4-dimethoxy-phenyl)-thioureido]-phenyl}-2,6-difluoro-benzamide]: the inhibition at 10 µg/mL in assay [1] (setting [6]) is 65%. The IC50 was determined as 10 µg/mL (≈ 20.9 µM) in assay [1] (setting [7]); 4 µg/mL (≈ 8.37 µM) in assay [2] (setting [5]); 0.15 µg/mL (≈ 0.314 µM) in assay [3] (HSV- I, Vero cells, ELISA).
For `COc1ccccc1C(C)NC(=S)Nc1ccc(NC(=O)c2ccccc2F)cc1` (stereo not drawn) [Example 788, 2-Fluoro-N-(4-{3-[1-(2-methoxy-phenyl)-ethyl]-thioureido}-phenyl)-benzamide], the results for the IC50 in assay [1] (setting [4]), in assay [2] (setting [5]) and in assay [3] (Vero) were greater than 7.5 µg/mL, 1.8 µg/mL (≈ 4.25 µM) and greater than 10 µg/mL, respectively.
On to `CC(NC(=S)Nc1ccc(NC(=O)c2cc3ccccc3o2)cc1)c1ccc(Br)cc1` (stereo not drawn) [Example 982, Benzofuran-2-carboxylic acid (4-{3-[1-(4-bromo-phenyl)-ethyl]-thioureido}-phenyl)-amide], for which the IC50 in assay [1] (setting [7]) was 0.1 µg/mL (≈ 0.202 µM); in assay [2] (setting [5]) it was 1.3 µg/mL (≈ 2.63 µM); in assay [3] (HSV- I, Vero cells, ELISA), greater than 10 µg/mL.
Regarding `CC(NC(=S)Nc1ccc(NC(=O)c2ccccc2F)cc1)c1ccccc1Cl` (stereo not drawn) [Example 784, N-(4-{3-[1-(2-Chloro-phenyl)-ethyl]-thioureido}-phenyl)-2-fluoro-benzamide], the values for the IC50 in assay [1] (setting [4]), in assay [2] (setting [5]) and in assay [3] (Vero) were 0.7 µg/mL (≈ 1.64 µM), 1.1 µg/mL (≈ 2.57 µM) and greater than 10 µg/mL, respectively.
In the same order, the values of `CN(C)c1cc(CNC(=S)Nc2ccc(NC(=O)c3ccccc3F)cc2)cc(C(F)(F)F)c1` [Example 636, N-{4-[3-(3-Dimethylamino-5-trifluoromethyl-benzyl)-thioureido]-phenyl}-2-fluoro-benzamide] are 5 µg/mL (≈ 10.2 µM), greater than 10 µg/mL and greater than 10 µg/mL.
Turning to `COc1cc(OC)c(NC(=S)Nc2ccc(NC(=O)c3cccc(OC(C)=O)c3)cc2)cc1Cl` [Example 253, Acetic acid 3-{4-[3-(5-chloro-2,4-dimethoxy-phenyl)-thioureido]-phenyl-carbamoyl}-phenyl ester], in assay [1] (setting [6]), the inhibition at 10 µg/mL amounted to 100%. Besides, the IC50 turned out to be 6 µg/mL (≈ 12 µM) in assay [1] (setting [7]); 8 µg/mL (≈ 16 µM) in assay [2] (setting [5]); 1.2 µg/mL (≈ 2.4 µM) in assay [3] (HSV- I, Vero cells, ELISA).
As for `O=C(Nc1ccc(NC(=S)Nc2cccc(O)c2)cc1)c1ccccc1F` [Example 475, 2-Fluoro-N-{4-[3-(3-hydroxy-phenyl)-thioureido]-phenyl}-benzamide], the inhibition at 10 µg/mL in assay [1] (setting [8]) came to 28%. Also, the IC50 in assay [1] (setting [9]) was greater than 10 µg/mL; in assay [2] (read-out: IC50 ug/ml HCMV), greater than 10 µg/mL; in assay [3] (HSV- I, Vero cells, ELISA), 5 µg/mL (≈ 13.1 µM).
In the case of `CC(NC(=S)Nc1ccc(NC(=O)c2ccccc2F)cc1)c1ccc(N(C)C)cc1` (stereo not drawn) [Example 793, N-(4-{3-[1-(4-Dimethylamino-phenyl)-ethyl]-thioureido}-phenyl)-2-fluoro-benzamide], the IC50 is 3.1 µg/mL (≈ 7.1 µM) in assay [1] (setting [4]), 3.2 µg/mL (≈ 7.33 µM) in assay [2] (setting [5]) and 9 µg/mL (≈ 20.6 µM) in assay [3] (Vero).
On to `CN(C)c1ccc(Cl)cc1NC(=S)Nc1ccc(NC(=O)c2ccccc2F)cc1` [Example 490, N-{4-[3-(5-Chloro-2-dimethylamino-phenyl)-thioureido]-phenyl}-2-fluoro-benzamide], for which the inhibition at 10 µg/mL in assay [1] (setting [6]) was 68%. Besides, the IC50 is greater than 10 µg/mL in assay [1] (setting [7]); 2.5 µg/mL (≈ 5.64 µM) in assay [2] (setting [5]); 1 µg/mL (≈ 2.26 µM) in assay [3] (HSV- I, Vero cells, ELISA).
On to `C[C@@H](NC(=S)Nc1ccc(NC(=O)c2ccccc2F)cc1)c1ccc(Cl)cc1` [Example 1014, N-(4-{3-[(1R)-1-(4-Chloro-phenyl)-ethyl]-thioureido}-phenyl)-2-fluoro-benzamide], for which the IC50 in assay [1] (setting [4]) was greater than 7.5 µg/mL; in assay [2] (setting [5]) it was 2.9 µg/mL (≈ 6.78 µM); in assay [3] (Vero) it was greater than 10 µg/mL.
The like results for `CC(C)CN(C)c1cc(NC(=S)Nc2ccc(NC(=O)c3ccccc3F)cc2)cc(C(F)(F)F)c1` [Example 596, 2-Fluoro-N-(4-{3-[3-(isobutyl-methyl-amino)-5-trifluoromethyl-phenyl]-thioureido}-phenyl)-benzamide] were, in that order, greater than 10 µg/mL, 2 µg/mL (≈ 3.86 µM) and greater than 10 µg/mL.
`CCSc1ccc(NC(=S)Nc2ccc(NC(=O)c3ccccc3F)cc2)cc1Cl` [Example 386, N-{4-[3-(3-Chloro-4-ethylsulfanyl-phenyl)-thioureido]-phenyl}-2-fluoro-benzamide]: the inhibition at 10 µg/mL in assay [1] (setting [6]) worked out at 29%. Besides, the IC50 in assay [1] (setting [7]) is greater than 10 µg/mL; in assay [2] (setting [5]), 2 µg/mL (≈ 4.35 µM); in assay [3] (HSV- I, Vero cells, ELISA), greater than 10 µg/mL.
